Test system: stimulated human neutrophils
Assay: FIB One cleavage in supernatant from stimulated neutrophils
Format: cell-based
Settings: FIB One 1 μM, 10 min incubation with neutrophil supernatant
Protocol: Neutrophils were isolated from the blood of healthy human volunteers as previously described. The number of retrieved neutrophils was determined with NucleoCounter NC-1000 (Chemo Metec). Neutrophils were resuspended at a concentration of 20×10^6 mL^-1 in 0.9% NaCl with 0.9 mM CaCl2. Cells were incubated for 30 min at 37°C. Cells to be stimulated were subsequently activated with 5 μM calcium ionophore A23187 (Tocris Bioscience) for 30 min at 37°C. Neutrophils were harvested by centrifugation at 400 x g for 5 min. Supernatants were removed and stored. Plate reader assays were performed as described above, with the MMP buffer replaced with neutrophil supernatant. All experiments were carried out in duplicate using three independent donors (one donor per independent repeat). Data were normalised by background subtraction of intrinsic fluorescence.

Substance: (Pro-Phe-Gly-Nle-Lys-βAla)3 [FIB One]
- cleavage of FIB One: cleaved
